Source: ChEMBL document CHEMBL1201861, “Genomics of Drug Sensitity in Cancer screening data, Wellcome Trust Sanger Institute”

Columns and labels:
Test in all cases: cells
CP66-MEL = assay type: functional, cell-based, Homo sapiens; settings: Homo sapiens, CP66-MEL;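 further: growth inhibition of CP66-MEL cells determined in a cell viability assay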
Description: SANGER: Inhibition of human CP66-MEL cell growth in a cell viability assay.

D-502MG = assay type: functional, cell-based, Homo sapiens; settings: Homo sapiens, D-502MG
Description: SANGER: Inhibition of human D-502MG cell growth in a cell viability assay.

DB = assay type: functional, cell-based; settings: Homo sapiens
Description: SANGER: Inhibition of human DB cell growth in a cell viability assay.

DMS-273 = assay type: functional, cell-based, Homo sapiens; settings: Homo sapiens, DMS-273
Description: SANGER: Inhibition of human DMS-273 cell growth in a cell viability assay.

ES6 = assay type: functional, cell-based, Homo sapiens; settings: Homo sapiens, ES6;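 further: growth inhibition of human ES6 cells, read out with a cell viability assay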
Description: SANGER: Inhibition of human ES6 cell growth in a cell viability assay.

ESS-1 = assay type: functional, cell-based, Homo sapiens; settings: Homo sapiens, ESS-1;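 further: growth inhibition of human ESS-1 cells, read out by a cell viability assay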
Description: SANGER: Inhibition of human ESS-1 cell growth in a cell viability assay.

H4 = assay type: functional, cell-based; settings: Homo sapiens
Description: SANGER: Inhibition of human H4 cell growth in a cell viability assay.

HCC1419 = assay type: functional, cell-based, Homo sapiens; settings: Homo sapiens, HCC1419;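 further: growth inhibition of human HCC1419 cells, read out as cell viability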
Description: SANGER: Inhibition of human HCC1419 cell growth in a cell viability assay.

HOP-92 = assay type: functional, cell-based, Homo sapiens; settings: Homo sapiens, HOP-92;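 further: cell viability readout, with IC50 reflecting inhibition of HOP-92 cell growth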
Description: SANGER: Inhibition of human HOP-92 cell growth in a cell viability assay.

HPAF-II = assay type: functional, cell-based, Homo sapiens; settings: Homo sapiens, HPAF-II;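 further: growth inhibition of HPAF-II cells, read out with a cell viability assay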
Description: SANGER: Inhibition of human HPAF-II cell growth in a cell viability assay.

HT1197 = assay type: functional, cell-based, Homo sapiens, HT-1197; settings: Homo sapiens, HT1197
Description: SANGER: Inhibition of human HT-1197 cell growth in a cell viability assay.

HT-29 = assay type: functional, cell-based, Homo sapiens; settings: Homo sapiens, HT-29;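 further: growth inhibition of human HT-29 cells, read out by a cell viability assay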
Description: SANGER: Inhibition of human HT-29 cell growth in a cell viability assay.

IST-MES1 = assay type: functional, cell-based, Homo sapiens; settings: Homo sapiens, IST-MES1;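 further: growth inhibition of IST-MES1 cells, measured with a cell viability assay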
Description: SANGER: Inhibition of human IST-MES1 cell growth in a cell viability assay.

KNS-81-FD = assay type: functional, cell-based, Homo sapiens; settings: Homo sapiens, KNS-81-FD;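 further: growth inhibition of KNS-81-FD cells, read out with a cell viability assay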
Description: SANGER: Inhibition of human KNS-81-FD cell growth in a cell viability assay.

KYSE-70 cell line = assay type: functional, cell-based, Homo sapiens; settings: Homo sapiens, KYSE-70;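 further: cell viability assay read-out, with IC50 expressing suppression of KYSE-70 cell growth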
Description: SANGER: Inhibition of human KYSE-70 cell growth in a cell viability assay.

LB1047-RCC = assay type: functional, cell-based, Homo sapiens; settings: Homo sapiens, LB1047-RCC;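 further: inhibition of cell growth, determined with a cell viability assay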
Description: SANGER: Inhibition of human LB1047-RCC cell growth in a cell viability assay.

LB771-HNC = assay type: functional, cell-based, Homo sapiens; settings: Homo sapiens, LB771-HNC;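 further: growth inhibition of LB771-HNC human cells, read out with a cell viability assay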
MHH-NB-11 = assay type: functional, cell-based, Homo sapiens; settings: Homo sapiens, MHH-NB-11;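 further: growth inhibition of human MHH-NB-11 cells, read out by a cell viability assay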
Description: SANGER: Inhibition of human MHH-NB-11 cell growth in a cell viability assay.

MIA PaCa-2 = assay type: functional, cell-based, Homo sapiens; settings: Homo sapiens, MIA PaCa-2;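 further: growth inhibition of MIA PaCa-2 cells, read out with a cell viability assay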
Description: SANGER: Inhibition of human MIA-PaCa-2 cell growth in a cell viability assay.

MN-60 = assay type: functional, cell-based; settings: Homo sapiens;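 further: growth inhibition of the MN-60 cell line, determined with a cell viability assay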
Description: SANGER: Inhibition of human MN-60 cell growth in a cell viability assay.

MOLT-16 = assay type: functional, cell-based; settings: Homo sapiens;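 further: growth inhibition of human MOLT-16 cells, read out with a cell viability assay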
Description: SANGER: Inhibition of human MOLT-16 cell growth in a cell viability assay.

MPP-89 = assay type: functional, cell-based, Homo sapiens; settings: Homo sapiens, MPP-89;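 further: growth inhibition of human MPP-89 cells, read out with a cell viability assay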
Description: SANGER: Inhibition of human MPP-89 cell growth in a cell viability assay.

MZ2-MEL = assay type: functional, cell-based, Homo sapiens; settings: Homo sapiens, MZ2-MEL;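 further: growth inhibition of MZ2-MEL cells read out with a cell viability assay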
Description: SANGER: Inhibition of human MZ2-MEL cell growth in a cell viability assay.

MeWo = assay type: functional, cell-based, Homo sapiens; settings: Homo sapiens, MeWo;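 further: growth inhibition of MeWo cells, determined by a cell viability readout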
Description: SANGER: Inhibition of human Mewo cell growth in a cell viability assay.

NB6 = assay type: functional, cell-based, Homo sapiens; settings: Homo sapiens, NB6;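 further: growth inhibition of NB6 cells, read out by a cell viability assay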
Description: SANGER: Inhibition of human NB6 cell growth in a cell viability assay.

NCI-H1581 = assay type: functional, cell-based, Homo sapiens; settings: Homo sapiens, NCI-H1581;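 further: cell growth inhibition read out by a viability assay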
Description: SANGER: Inhibition of human NCI-H1581 cell growth in a cell viability assay.

NCI-H1793 = assay type: functional, cell-based, Homo sapiens; settings: Homo sapiens, NCI-H1793;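 further: cell growth inhibition, read out by a cell viability assay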
Description: SANGER: Inhibition of human NCI-H1793 cell growth in a cell viability assay.

NCI-H23 = assay type: functional, cell-based, Homo sapiens; settings: Homo sapiens, NCI-H23;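 further: cell viability assay measuring growth inhibition of NCI-H23 cells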
Description: SANGER: Inhibition of human NCI-H23 cell growth in a cell viability assay.

NCI-H69 = assay type: functional, cell-based; settings: Homo sapiens;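 further: growth inhibition of the cell line, read out with a cell viability assay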
Description: SANGER: Inhibition of human NCI-H69 cell growth in a cell viability assay.

NOMO-1 = assay type: functional, cell-based; settings: Homo sapiens;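 further: growth inhibition of human NOMO-1 cells measured by a cell viability assay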
OCUB-M = assay type: functional, cell-based, Homo sapiens; settings: Homo sapiens, OCUB-M;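 further: growth inhibition of the cancer cell line, read out through a cell viability assay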
Description: SANGER: Inhibition of human OCUB-M cell growth in a cell viability assay.

OVCAR-4 = assay type: functional, cell-based, Homo sapiens; settings: Homo sapiens, OVCAR-4;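 further: growth inhibition of human OVCAR-4 cells, measured with a cell viability assay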
Description: SANGER: Inhibition of human OVCAR-4 cell growth in a cell viability assay.

OVCAR-5 = assay type: functional, cell-based, Homo sapiens; settings: Homo sapiens, OVCAR-5;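 further: growth inhibition of human OVCAR-5 cells, read out with a cell viability assay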
Description: SANGER: Inhibition of human OVCAR-5 cell growth in a cell viability assay.

P12-Ichikawa = assay type: functional, cell-based; settings: Homo sapiens
PA-1 = assay type: functional, cell-based, Homo sapiens; settings: Homo sapiens, PA-1;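 further: IC50 for suppression of PA-1 cell proliferation, determined with a cell viability read-out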
Description: SANGER: Inhibition of human PA-1 cell growth in a cell viability assay.

SF-539 = assay type: functional, cell-based, Homo sapiens; settings: Homo sapiens, SF-539;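 further: Read-out is a cell viability assay, with IC50 reflecting inhibition of cell growth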
Description: SANGER: Inhibition of human SF539 cell growth in a cell viability assay.

SK-MEL-2 = assay type: functional, cell-based, Homo sapiens; settings: Homo sapiens, SK-MEL-2
Description: SANGER: Inhibition of human SK-MEL-2 cell growth in a cell viability assay.

SK-MEL-28 = assay type: functional, cell-based; settings: Homo sapiens;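 further: growth inhibition of human SK-MEL-28 cells, read out with a cell viability assay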
Description: SANGER: Inhibition of human SK-MEL-28 cell growth in a cell viability assay.

SK-MES-1 = assay type: functional, cell-based, Homo sapiens; settings: Homo sapiens, SK-MES-1;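 further: growth inhibition of human SK-MES-1 cells, read out with a cell viability assay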
Description: SANGER: Inhibition of human SK-MES-1 cell growth in a cell viability assay.

SW837 = assay type: functional, cell-based, Homo sapiens; settings: Homo sapiens, SW837;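 further: growth inhibition of SW837 cells, determined with a cell viability assay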
Description: SANGER: Inhibition of human SW837 cell growth in a cell viability assay.

SW872 = assay type: functional, cell-based, Homo sapiens; settings: Homo sapiens, SW872;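 further: growth inhibition of SW872 cells, read out by a viability assay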
Description: SANGER: Inhibition of human SW872 cell growth in a cell viability assay.

TE-1 = assay type: functional, cell-based, Homo sapiens; settings: Homo sapiens, TE-1;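 further: growth inhibition of the human TE-1 cell line, read out with a cell viability assay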
Description: SANGER: Inhibition of human TE-1 cell growth in a cell viability assay.

5637 = assay type: functional, cell-based, Homo sapiens; settings: Homo sapiens
Description: SANGER: Inhibition of human 5637 cell growth in a cell viability assay.

647-V = assay type: functional, cell-based, Homo sapiens; settings: Homo sapiens, 647-V;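 further: growth inhibition of 647-V cells, read out with a cell viability assay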
Description: SANGER: Inhibition of human 647-V cell growth in a cell viability assay.

A253 cell line = assay type: functional, cell-based, Homo sapiens; settings: Homo sapiens, A253;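 further: growth inhibition of A253 cells, read out with a cell viability assay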
Description: SANGER: Inhibition of human A253 cell growth in a cell viability assay.

A3-KAW = assay type: functional, cell-based; settings: Homo sapiens;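 further: growth inhibition of human A3-KAW cells, read out with a cell viability assay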
Description: SANGER: Inhibition of human A3-KAW cell growth in a cell viability assay.

BT-474 = assay type: functional, cell-based, Homo sapiens; settings: Homo sapiens, BT-474
Description: SANGER: Inhibition of human BT-474 cell growth in a cell viability assay.

CAL-54 = assay type: functional, cell-based, Homo sapiens; settings: Homo sapiens, CAL-54;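 further: growth inhibition of CAL-54 cells, read out by a viability measurement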
Description: SANGER: Inhibition of human CAL-54 cell growth in a cell viability assay.

TGW = assay type: functional, cell-based; settings: Homo sapiens;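 further: growth inhibition of human TGW cells, read out with a cell viability assay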
Description: SANGER: Inhibition of human TGW cell growth in a cell viability assay.

UACC-893 = assay type: functional, cell-based, Homo sapiens; settings: Homo sapiens, UACC-893
Description: SANGER: Inhibition of human UACC-893 cell growth in a cell viability assay.

VM-CUB-1 = assay type: functional, cell-based; settings: Homo sapiens;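 further: cell viability assay measuring growth inhibition of the human VM-CUB-1 cell line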
Description: SANGER: Inhibition of human VM-CUB-1 cell growth in a cell viability assay.

With `CCC1=C[C@@H]2CN(C1)Cc1c([nH]c3ccccc13)[C@@](C(=O)OC)(c1cc3c(cc1OC)N(C)[C@H]1[C@@](O)(C(=O)OC)[C@H](OC(C)=O)[C@]4(CC)C=CCN5CC[C@]31[C@@H]54)C2` [VINORELBINE] the IC50 (CP66-MEL) was 0.0451 µM, the IC50 (D-502MG) was > 0.064 µM and the IC50 (DB) was 0.0194 µM. The IC50 (DMS-273) was 0.00271 µM, the IC50 (ES6) was 0.0424 µM and the IC50 (ESS-1) was 0.00914 µM. For the same compound, the IC50 (H4) was 0.00785 µM, the IC50 (HCC1419) was > 0.064 µM and the IC50 (HOP-92) was 0.0513 µM. For the same compound, the IC50 (HPAF-II) was 0.0166 µM, the IC50 (HT1197) was > 0.064 µM and the IC50 (HT-29) was 0.00324 µM. The IC50 (IST-MES1) was > 0.064 µM, the IC50 (KNS-81-FD) was > 0.064 µM and the IC50 (KYSE-70 cell line) was 0.0167 µM. For the same compound, the IC50 (LB1047-RCC) was > 0.064 µM, the IC50 (LB771-HNC) was 0.00859 µM and the IC50 (MHH-NB-11) was 0.0177 µM. For the same compound, the IC50 (MIA PaCa-2) was 0.00583 µM, the IC50 (MN-60) was > 0.064 µM and the IC50 (MOLT-16) was 0.0128 µM. For the same compound, the IC50 (MPP-89) was > 0.064 µM, the IC50 (MZ2-MEL) was 0.043 µM and the IC50 (MeWo) was 0.0152 µM. For the same compound, the IC50 (NB6) was > 0.064 µM, the IC50 (NCI-H1581) was 0.0372 µM and the IC50 (NCI-H1793) was 0.0192 µM. For the same compound, the IC50 (NCI-H23) was 0.0601 µM, the IC50 (NCI-H69) was 0.00634 µM and the IC50 (NOMO-1) was 0.019 µM. For the same compound, the IC50 (OCUB-M) was 0.00443 µM, the IC50 (OVCAR-4) was 0.00175 µM and the IC50 (OVCAR-5) was > 0.064 µM. The IC50 (P12-Ichikawa) was 0.0252 µM, the IC50 (PA-1) was 0.00312 µM and the IC50 (SF-539) was 0.0141 µM. The IC50 (SK-MEL-2) was 0.00718 µM, the IC50 (SK-MEL-28) was > 0.064 µM and the IC50 (SK-MES-1) was 0.00573 µM. The IC50 (SW837) was > 0.064 µM, the IC50 (SW872) was 0.00565 µM and the IC50 (TE-1) was 0.0131 µM. It also gave an IC50 5637 of 0.00755 µM, an IC50 (647-V) of 0.0209 µM and an IC50 (A253 cell line) of 0.00122 µM. For the same compound, the IC50 (A3-KAW) was 0.0216 µM, the IC50 (BT-474) was 0.0285 µM and the IC50 (CAL-54) was > 0.064 µM. For the same compound, the IC50 (TGW) was > 0.064 µM, the IC50 (UACC-893) was > 0.064 µM and the IC50 (VM-CUB-1) was 0.0191 µM.

In the case of `Cc1ccc(Nc2nccc(N(C)c3ccc4c(C)n(C)nc4c3)n2)cc1S(N)(=O)=O` [PAZOPANIB], the IC50 (CP66-MEL) is reported as > 8 µM, the IC50 (D-502MG) is reported as 7.78 µM and the IC50 (DB) is reported as > 8 µM. The IC50 (DMS-273) was 4.96 µM, the IC50 (ES6) was 6.03 µM and the IC50 (ESS-1) was 1.6 µM. The IC50 (H4) was 2.51 µM, the IC50 (HCC1419) was > 8 µM and the IC50 (HOP-92) was > 8 µM. For the same compound, the IC50 (HPAF-II) was > 8 µM, the IC50 (HT1197) was > 8 µM and the IC50 (HT-29) was > 8 µM. For the same compound, the IC50 (IST-MES1) was > 8 µM, the IC50 (KNS-81-FD) was > 8 µM and the IC50 (KYSE-70 cell line) was > 8 µM. The IC50 (LB1047-RCC) was 3.53 µM, the IC50 (LB771-HNC) was > 8 µM and the IC50 (MHH-NB-11) was > 8 µM. For the same compound, the IC50 (MIA PaCa-2) was 5.6 µM, the IC50 (MN-60) was > 8 µM and the IC50 (MOLT-16) was > 8 µM. For the same compound, the IC50 (MPP-89) was > 8 µM, the IC50 (MZ2-MEL) was 6.93 µM and the IC50 (MeWo) was > 8 µM. The IC50 (NB6) was > 8 µM, the IC50 (NCI-H1581) was > 8 µM and the IC50 (NCI-H1793) was > 8 µM. The IC50 (NCI-H23) was > 8 µM, the IC50 (NCI-H69) was > 8 µM and the IC50 (NOMO-1) was > 8 µM. The IC50 (OCUB-M) was 3.31 µM, the IC50 (OVCAR-4) was > 8 µM and the IC50 (OVCAR-5) was > 8 µM. The IC50 (P12-Ichikawa) was > 8 µM, the IC50 (PA-1) was > 8 µM and the IC50 (SF-539) was > 8 µM. The IC50 (SK-MEL-2) was > 8 µM, the IC50 (SK-MEL-28) was > 8 µM and the IC50 (SK-MES-1) was 6.87 µM. For the same compound, the IC50 (SW837) was > 8 µM, the IC50 (SW872) was > 8 µM and the IC50 (TE-1) was > 8 µM. For the same compound, the IC50 5637 was > 8 µM, the IC50 (647-V) was > 8 µM and the IC50 (A253 cell line) was > 8 µM. For the same compound, the IC50 (A3-KAW) was > 8 µM, the IC50 (BT-474) was > 8 µM and the IC50 (CAL-54) was 3.28 µM. The IC50 (TGW) was > 8 µM, the IC50 (UACC-893) was > 8 µM and the IC50 (VM-CUB-1) was > 8 µM.

With `COC(=O)CNC(=O)C(=O)OC` the IC50 (CP66-MEL) was 445 µM, the IC50 (D-502MG) was > 4000 µM and the IC50 (DB) was 52.4 µM. It also gave an IC50 (DMS-273) of 16 µM, an IC50 (ES6) of 3540 µM and an IC50 (ESS-1) of 198 µM. The IC50 (H4) was 177 µM, the IC50 (HCC1419) was > 4000 µM and the IC50 (HOP-92) was 1960 µM. The IC50 (HPAF-II) was 998 µM, the IC50 (HT1197) was 315 µM and the IC50 (HT-29) was 846 µM. For the same compound, the IC50 (IST-MES1) was > 4000 µM, the IC50 (KNS-81-FD) was 1850 µM and the IC50 (KYSE-70 cell line) was 551 µM. The IC50 (LB1047-RCC) was 50 µM, the IC50 (LB771-HNC) was 412 µM and the IC50 (MHH-NB-11) was > 4000 µM. For the same compound, the IC50 (MIA PaCa-2) was 139 µM, the IC50 (MN-60) was 147 µM and the IC50 (MOLT-16) was 127 µM. For the same compound, the IC50 (MPP-89) was 1280 µM, the IC50 (MZ2-MEL) was 478 µM and the IC50 (MeWo) was 230 µM. The IC50 (NB6) was 1920 µM, the IC50 (NCI-H1581) was 729 µM and the IC50 (NCI-H1793) was 2950 µM. The IC50 (NCI-H23) was 2950 µM, the IC50 (NCI-H69) was > 4000 µM and the IC50 (NOMO-1) was 154 µM. The IC50 (OCUB-M) was > 4000 µM, the IC50 (OVCAR-4) was 93.8 µM and the IC50 (OVCAR-5) was 458 µM. For the same compound, the IC50 (P12-Ichikawa) was 62 µM, the IC50 (PA-1) was 120 µM and the IC50 (SF-539) was 310 µM. It also gave an IC50 (SK-MEL-2) of 1960 µM, an IC50 (SK-MEL-28) of 569 µM and an IC50 (SK-MES-1) of 221 µM. It also gave an IC50 (SW837) of 858 µM, an IC50 (SW872) of 603 µM and an IC50 (TE-1) of 1010 µM. For the same compound, the IC50 5637 was 857 µM, the IC50 (647-V) was 93.5 µM and the IC50 (A253 cell line) was 232 µM. For the same compound, the IC50 (A3-KAW) was 15.8 µM, the IC50 (BT-474) was > 4000 µM and the IC50 (CAL-54) was 1250 µM. The IC50 (TGW) was > 4000 µM, the IC50 (UACC-893) was > 4000 µM and the IC50 (VM-CUB-1) was 151 µM.
